Test results taken from US9345703B2, “Kappa opioid receptor effectors and uses thereof” (University of Kansas, priority 2011, dated 2016).

Assays:
MOR [1] = target: T1, MOR (Homo sapiens, UniProt P35372); assay: High content imaging β-arrestin translocation assay, MOR antagonist (MOR HCS); format: cell-based; settings: antagonist; average; read-out: Potency, Antitarget MOR HCS
Source text: (§1) In this campaign, two assay platforms were employed to evaluate KOR activity and selectivity: the KOR1 DISCOVERX β-Arrestin […] assay and an imaging based β-arrestin translocation assay for confirmatory and selectivity assays. The KOR1 DISCOVERX β-Arrestin […] assay is a commercial platform for direct measurement of GPCR (G protein-coupled receptor) activation by detection of β-Arrestin binding to the KOR. […] In cells that stably express these fusion proteins, ligand stimulation results in the recruitment of β-Arrestin by the GPCR. This interaction encourages the complementation of the two β-galactosidase fragments resulting in the formation of a functional enzyme that converts substrate in the assay medium to a detectable signal. The imaging based high-content β-arrestin translocation assay is based upon the redistribution of β-Arrestin linked to green fluorescent protein (GFP) to the cell surface and detection (Barak, et al. (1997) J. Biol. Chem. 272:27497-27500).
(§2) Initially, a portion (approximately 290,000 compounds) of the MLSMR compound collection was tested in the KOR1 DISCOVERX β-arrestin primary kappa opioid (KOP) agonist and antagonist screens (PUBCHEM AID 1777 and 1778, respectively) at a single concentration point (10 μM). […] These compounds were concurrently tested in a β-galactosidase counterscreen assay (PUBCHEM AID 1966) to assess the possibility that these compounds might inhibit the reporting enzyme. […] The KOR:DOR:MOR selectivity of the compounds was determined using the analogous β-arrestin translocation assays for the DOR (PUBCHEM AID 2370 and 2357, for agonists and antagonist, respectively) and the MOR (PUBCHEM AID 2352 and 2420, for agonists and antagonists, respectively).

DOR = DOR (Homo sapiens, UniProt P41143); assay: High content imaging β-arrestin translocation assay, DOR antagonist (DOR HCS); format: cell-based; settings: antagonist; average; read-out: Potency, Antitarget DOR HCS
Chain of DOR (P41143 whole entry): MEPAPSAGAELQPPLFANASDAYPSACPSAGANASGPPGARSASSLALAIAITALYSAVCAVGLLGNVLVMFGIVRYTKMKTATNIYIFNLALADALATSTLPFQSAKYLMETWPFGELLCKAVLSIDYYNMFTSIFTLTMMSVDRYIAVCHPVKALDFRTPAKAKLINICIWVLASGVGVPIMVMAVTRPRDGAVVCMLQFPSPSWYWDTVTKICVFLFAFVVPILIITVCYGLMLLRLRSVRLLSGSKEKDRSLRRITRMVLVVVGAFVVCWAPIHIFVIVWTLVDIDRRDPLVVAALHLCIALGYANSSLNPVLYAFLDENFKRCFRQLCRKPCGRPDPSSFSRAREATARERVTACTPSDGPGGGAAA
Source text: as §1, §2

KOR [2] = target: T2, KOR (Homo sapiens, UniProt P41145); assay: High content imaging β-arrestin translocation assay, KOR antagonist (KOR HCS); format: cell-based
T2 sequence (P41145 whole entry): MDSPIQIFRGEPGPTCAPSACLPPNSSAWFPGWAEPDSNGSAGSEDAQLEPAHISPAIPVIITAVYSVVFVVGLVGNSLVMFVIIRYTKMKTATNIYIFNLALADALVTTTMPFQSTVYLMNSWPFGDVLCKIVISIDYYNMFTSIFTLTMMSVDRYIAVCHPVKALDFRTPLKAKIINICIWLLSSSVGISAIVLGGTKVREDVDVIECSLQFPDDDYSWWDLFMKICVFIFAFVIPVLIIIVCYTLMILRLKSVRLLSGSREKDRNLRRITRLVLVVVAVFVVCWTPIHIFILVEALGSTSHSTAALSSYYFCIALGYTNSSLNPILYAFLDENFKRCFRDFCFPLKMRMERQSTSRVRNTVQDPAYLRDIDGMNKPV
Source text: as §1, §2

KOR [3] = target: T2, KOR; assay: KOR1 DISCOVERX β-Arrestin […] assay, antagonist mode (KOR DRX); format: cell-based
Source text: as §1, §2

KOR [4] = target: T2, KOR; assay: High content imaging based β-arrestin translocation assay, KOR agonist (KOR HCS); format: cell-based; settings: n = 2, read-out: Average Potency KOR HCS
Source text: as §1, §2

MOR [5] = target: T1, MOR; assay: High content imaging based β-arrestin translocation assay, MOR agonist (MOR HCS); format: cell-based; settings: n = 2, read-out: Average Potency MOR HCS
Source text: as §1, §2

KOR [6] = target: T2, KOR; assay: DISCOVERX β-arrestin […] assay, agonist mode (KOR DRx); format: cell-based; settings: for EC50: agonist, n = 3, read-out: Average Potency KOR DRx; for Emax (%): at highest concentration tested, compared to dynorphin A (Emax=100%)
Source text: as §1, with “signal.” for “signal. The imaging based high-content β-arrestin translocation assay is based upon the redistribution of β-Arrestin linked to green fluorescent protein (GFP) to the cell surface and detection (Barak, et al. (1997) J. Biol. Chem. 272:27497-27500).”

KOR [7] = target: T2, KOR; assay: Binding affinity Ki of Table 9
[8] = antagonist, average, read-out: Potency, Target KOR HCS
[9] = antagonist, average, read-out: Potency, Target KOR DRX

T1 sequence (P35372 whole entry, the tested form may be a part): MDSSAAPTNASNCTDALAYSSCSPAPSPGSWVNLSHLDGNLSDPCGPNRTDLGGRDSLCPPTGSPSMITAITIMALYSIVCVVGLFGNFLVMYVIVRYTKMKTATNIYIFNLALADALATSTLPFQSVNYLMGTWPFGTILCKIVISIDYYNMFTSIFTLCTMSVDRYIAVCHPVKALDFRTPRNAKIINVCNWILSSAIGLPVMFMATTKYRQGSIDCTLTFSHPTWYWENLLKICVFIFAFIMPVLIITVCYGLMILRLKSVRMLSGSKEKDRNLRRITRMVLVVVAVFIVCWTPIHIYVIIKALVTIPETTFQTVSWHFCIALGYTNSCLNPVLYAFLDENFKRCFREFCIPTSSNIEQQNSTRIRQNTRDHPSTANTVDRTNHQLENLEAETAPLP

Row | SMILES | IC50 (MOR [1]) [µM] | IC50 (DOR) [µM] | IC50 (KOR [2]; [8]) [µM] | IC50 (KOR [3]; [9]) [µM] | IC50 (KOR [2]) [µM] | IC50 (KOR [3]) [µM] | EC50 (KOR [4]) [µM] | EC50 (MOR [5]) [µM] | EC50 (KOR [6]) [µM] | Ki (KOR [7]) [µM] | Emax (%) (KOR [6])
1 | COc1ccc(N2CCN(CCCNC(=O)Cn3c(=O)c4cccn4c4ccccc43)CC2)cc1 [1{2}] | > 32 | > 32 | 15.3 | 4.32 |  |  |  |  |  |  | 
2 | COc1ccc(N2CCN(CCCNC(=O)Cn3c(=O)c4cccn4c4c(C)ccnc43)CC2)c(OC)c1 [1{4}] | 30.9 | > 32 | 0.004 | 0.19 |  |  |  |  |  |  | 
3 | Cc1ccnc2c1n1cccc1c(=O)n2CC(=O)NCCCN1CCN(c2ccc3c(c2)OCO3)CC1 [1{5}] | 17.2 | > 32 | 0.045 | 0.43 |  |  |  |  |  |  | 
4 | Cc1ccc(N2CCN(CCCNC(=O)Cn3c(=O)c4cccn4c4c(C)ccnc43)CC2)cc1 [1{7}] | > 32 | > 32 | 2.28 | 0.88 |  |  |  |  |  |  | 
5 | Cc1ccnc2c1n1cccc1c(=O)n2CC(=O)NCCCN1CCN(c2ccccc2)CC1 [1{8}] | 22.5 | > 32 | 2.56 | 4.95 |  |  |  |  |  |  | 
6 | COc1ccc(N2CCN(CCCNC(=O)Cn3c(=O)c4cccn4c4cccnc43)CC2)c(OC)c1 [1{9}] | 10.8 | > 32 | 0.49 | 2.65 |  |  |  |  |  |  | 
7 | Cc1ccc(N2CCN(CCCNC(=O)Cn3c(=O)c4cccn4c4cccnc43)CC2)cc1 [1{12}] | 18.8 | > 32 | 0.89 | 3.68 |  |  |  |  |  |  | 
8 | COc1ccc(N2CCN(CCCNC(=O)Cn3c(=O)c4cccn4c4cc(Br)cnc43)CC2)cc1 [1{14}] | 10.3 | > 32 | 0.69 | 3.05 |  |  |  |  |  |  | 
9 | COc1ccc(N2CCN(CCCNC(=O)Cn3c(=O)c4cccn4c4cc(Br)cnc43)CC2)c(OC)c1 [1{16}] | 10.2 | > 32 | 3.02 | 2.82 |  |  |  |  |  |  | 
10 | Cc1ccc(Cl)cc1N1CCN(CCCNC(=O)Cn2c(=O)c3cccn3c3cccnc32)CC1 [1{24}] | 3.98 | > 32 | > 32 | > 20 |  |  |  |  |  |  | 
11 | Cc1cccc(N2CCN(CCNC(=O)Cn3c(=O)c4cccn4c4cccnc43)CC2)c1C [1{25}] |  | > 32 |  |  | > 32 | > 20 |  |  |  |  | 
12 | COc1ccc(N2CCN(CCNC(=O)Cn3c(=O)c4cccn4c4c(C)ccnc43)CC2)cc1 [1{26}] | > 32 | > 32 |  |  | > 32 |  |  |  |  |  | 
13 | COc1ccc(N2CCN(CCCCNC(=O)Cn3c(=O)c4cccn4c4c(C)ccnc43)CC2)cc1 [1{27}] | > 32 | > 32 | 0.005 | 1.25 |  |  |  |  |  |  | 
14 | Fc1cccc(F)c1CSc1nnc(-c2ccccn2)n1Cc1ccco1 [2{41}] |  |  |  |  |  |  | > 32 | > 32 | > 20 | 0.055 | 
15 | Cc1ccnc2c1n1cccc1c(=O)n2CC(=O)NCCCN1CCN(c2ccc(Cl)cc2)CC1 [Compound 1{6}] | > 32 | > 32 | 0.07 | 0.69 |  |  |  |  |  |  | 
16 | O=C(Cn1c(=O)c2cccn2c2cccnc21)NCCCN1CCN(c2ccc3c(c2)OCO3)CC1 [Compound 1{10}] | > 32 | > 32 | 0.78 | 4.23 |  |  |  |  |  |  | 
17 | O=C(Cn1c(=O)c2cccn2c2cccnc21)NCCCN1CCN(c2ccc(Cl)cc2)CC1 [Compound 1{11}] | > 32 | > 32 | 0.096 | 5.18 |  |  |  |  |  |  | 
18 | O=C(Cn1c(=O)c2cccn2c2cccnc21)NCCCN1CCN(c2ccccc2)CC1 [Compound 1{13}] | > 32 | > 32 | 12.7 | > 20 |  |  |  |  |  |  | 
19 | O=C(Cn1c(=O)c2cccn2c2cc(Br)cnc21)NCCCN1CCN(c2ccc(Cl)cc2)CC1 [Compound 1{15}] | 5.32 | > 32 | > 32 | > 20 |  |  |  |  |  |  | 
20 | O=C(Cn1c(=O)c2cccn2c2cc(Br)cnc21)NCCCN1CCN(c2ccc3c(c2)OCO3)CC1 [Compound 1{17}] | > 32 | > 32 | 0.15 | 3.11 |  |  |  |  |  |  | 

Row | SMILES | IC50 (MOR [1]) [µM] | IC50 (DOR) [µM] | IC50 (KOR [2]; [8]) [µM] | IC50 (KOR [3]; [9]) [µM] | IC50 (KOR [2]) [µM] | IC50 (KOR [3]) [µM] | EC50 (KOR [4]) [µM] | EC50 (MOR [5]) [µM] | EC50 (KOR [6]) [µM] | Ki (KOR [7]) [µM] | Emax (%) (KOR [6])
21 | O=C(Cn1c(=O)c2cccn2c2cccnc21)NCCCN1CCOCC1 [Compound 1{19}] | > 32 | > 32 | > 32 | > 20 |  |  |  |  |  |  | 
22 | CN1CCN(CCCNC(=O)Cn2c(=O)c3cccn3c3cccnc32)CC1 [Compound 1{20}] | > 32 | > 32 | > 32 | > 20 |  |  |  |  |  |  | 
23 | O=C(Cn1c(=O)c2cccn2c2cccnc21)NCCCN1CCCCC1 [Compound 1{21}] | > 32 | > 32 | > 32 | > 20 |  |  |  |  |  |  | 
24 | O=C(Cn1c(=O)c2cccn2c2cccnc21)NCCCN1CCC(Cc2ccccc2)CC1 [Compound 1{22}] | > 32 | > 32 |  | 4.78 |  |  |  |  |  |  | 
25 | O=C(Cn1c(=O)c2cccn2c2cccnc21)NCCCN1CCN(Cc2ccccc2)CC1 [Compound 1{23}] | > 32 | > 32 | 21.5 | > 20 |  |  |  |  |  |  | 
26 | FC(F)(F)c1cc(CSc2nnc(-c3ccccn3)n2Cc2cccs2)ccc1Cl [Compound 2{11}] |  |  |  |  |  |  | 1.4 | > 32 | 0.43 | 0.003 | ~109%
27 | Cc1ccc(CSc2nnc(-c3ccccn3)n2Cc2ccco2)cc1 [Compound 2{12}] |  |  |  |  |  |  | 5.21 | > 32 | 6.2 ± 1.26 | 0.016 | ~150%
28 | Fc1cc(F)cc(CSc2nnc(-c3ccccn3)n2Cc2cccs2)c1 [Compound 2{17}] |  |  |  |  |  |  | > 17.8 | > 32 | 7.2 | 0.094 | ~150%
29 | COc1ccc(CSc2nnc(-c3ccccn3)n2Cc2ccco2)cc1 [Compound 2{20}] |  |  |  |  |  |  | 12.4 | > 32 | 7.7 ± 1.47 | 0.028 | ~150%
30 | COc1ccc(CSc2nnc(-c3ccccn3)n2Cc2cccs2)cc1 [Compound 2{21}] |  |  |  |  |  |  | 5.98 | > 32 | 9.62 ± 1.32 | 0.0071 | ~130%
31 | c1ccc(CSc2nnc(-c3ccccn3)n2Cc2ccco2)cc1 [Compound 2{22}] |  |  |  |  |  |  | > 32 | > 32 | > 17.9 | 0.155 | Emax not reached
32 | c1ccc(CSc2nnc(-c3ccccn3)n2Cc2cccs2)cc1 [Compound 2{23}] |  |  |  |  |  |  | 23.5 | > 32 | 13.8 ± 1.18 | 0.138 | ~150%
33 | CC(C)c1ccc(CSc2nnc(-c3ccccn3)n2Cc2cccs2)cc1 [Compound 2{34}] |  |  |  |  |  |  | 2.2 | > 32 | 3.66 | 0.0023 | ~100%
34 | Cc1ccccc1CSc1nnc(-c2ccccn2)n1Cc1ccco1 [Compound 2{35}] |  |  |  |  |  |  | > 30 | > 32 | > 18.8 | 0.123 | 
35 | Fc1ccc(CSc2nnc(-c3ccccn3)n2Cc2ccco2)c(F)c1F [Compound 2{43}] |  |  |  |  |  |  | 5.3 | > 32 | 7 |  | ~140%
36 | Fc1ccc(CSc2nnc(-c3ccccn3)n2Cc2cccs2)c(F)c1F [Compound 2{44}] |  |  |  |  |  |  | 1.7 | > 32 | 3.04 |  | ~115%
37 | Fc1ccc(CSc2nnc(-c3ccccn3)n2Cc2ccco2)c(C(F)(F)F)c1 [Compound 2{45}] |  |  |  |  |  |  | 5.4 | > 32 | 8.27 |  | ~138%
38 | Fc1ccc(CSc2nnc(-c3ccccn3)n2Cc2cccs2)c(C(F)(F)F)c1 [Compound 2{46}] |  |  |  |  |  |  | 2.25 | > 32 | 4.46 |  | ~109%
39 | Clc1ccccc1CSc1nnc(-c2ccccn2)n1Cc1cccs1 [Compound 2{48}] |  |  |  |  |  |  | 4.1 | > 32 | 10.2 |  | ~100%
